Target: human ACMSD (Homo sapiens (Human), UniProt Q8TDX5)
Assay: Human ACMSD-1 inhibitor assay (coupled 3-HAO/ACMSD, absorbance at 360 nm)
Details: read-out: hACMSD IC50; human ACMSD 6 μg/ml, 50 mM MES pH 6.0, 28° C., four-parameter dose-response fit
Procedure: A solution of 7.8 μg/ml 3-hydroxyanthranilate 3,4-dioxygenase (3-HAO) with protein dilution buffer (50 mM 4-Morpholineethanesulfonic acid “MES” pH 6.0) and a solution of 6 μg/ml Human 2-amino-3-carboxymuconate-6-semialdehyde decarboxylase (human ACMSD) with protein dilution buffer (50 mM MES pH 6.0) were prepared separately. A serial 2-fold dilution of test compounds, from 512 nM until 0.5 nM were prepared.
The plate was placed into a SpectraMax Plus 384 Microplate Reader, Molecular Devices with the temperature set to 28° C. The absorbance at 360 nm for 10 min with 10 seconds interval was monitored and recorded.
To a 96-well plate was added 50 μl of 6 μg/ml human ACMSD with series concentrations of the test compound. The absorbance was recorded at 360 nm for 10 min with 10 seconds interval. The data was analyzed in GraphPad Prism 6. A four-parameter dose-response curve was fitted. “Hill Slope” was constrained between −0.5 and −3, and such constrains was indicated when applied.

human ACMSD, sequence (Q8TDX5 whole entry): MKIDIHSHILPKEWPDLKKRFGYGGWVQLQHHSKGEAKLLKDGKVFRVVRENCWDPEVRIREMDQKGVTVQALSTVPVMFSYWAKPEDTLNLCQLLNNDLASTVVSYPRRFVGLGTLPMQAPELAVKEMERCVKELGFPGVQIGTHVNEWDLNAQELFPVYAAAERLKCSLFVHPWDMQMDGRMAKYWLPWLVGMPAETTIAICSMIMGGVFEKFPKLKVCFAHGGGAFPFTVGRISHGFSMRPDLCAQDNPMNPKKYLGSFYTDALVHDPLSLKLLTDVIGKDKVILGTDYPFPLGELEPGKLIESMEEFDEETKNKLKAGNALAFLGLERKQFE

SMILES | IC50
N#Cc1c(-c2ccccc2)cc(=O)[nH]c1SCC(=O)O [Ex. 12, 2-((3-cyano-6-oxo-4-phenyl-1,6-dihydropyridin-2-yl)thio)acetic acid] | 7000 nM
N#Cc1c(-c2ccccc2)cc(=O)[nH]c1SCc1cccc(-c2nnn[nH]2)c1 [Ex. 50, 2-((3-(1H-tetrazol-5-yl)benzyl)thio)-6-oxo-4-phenyl-1,6-dihydropyridine-3-carbonitrile] | 3 nM
N#Cc1c(C(F)(F)F)cc(=O)[nH]c1SC(F)(F)C(=O)O [Ex. 28, 2-((3-cyano-6-oxo-4-(trifluoromethyl)-1,6-dihydropyridin-2-yl)thio)-2,2-difluoroacetic acid] | 20 nM
Cc1ccc(-c2cc(=O)[nH]c(SCc3cccc(C(=O)O)c3)c2C#N)cc1 [Ex. 29, 3-(((3-cyano-6-oxo-4-(p-tolyl)-1,6-dihydropyridin-2-yl)thio)methyl)benzoic acid] | 4 nM
N#Cc1c(-c2ccccc2)cc(=O)[nH]c1SCc1cncc(C(=O)O)c1 [Ex. 34, 5-(((3-cyano-6-oxo-4-phenyl-1,6-dihydropyridin-2-yl)thio)methyl)nicotinic acid] | 3 nM
N#Cc1c(-c2cccnc2)cc(=O)[nH]c1SCc1cccc(C(=O)O)c1 [Ex. 37, 3-(((3′-cyano-6′-oxo-1′,6′-dihydro-[3,4′-bipyridin]-2′-yl)thio)methyl)benzoic acid] | 50 nM
N#Cc1c(C(F)(F)F)cc(=O)[nH]c1SCc1nnn[nH]1 [Ex. 43, 2-(((1H-tetrazol-5-yl)methyl)thio)-6-oxo-4-(trifluoromethyl)-1,6-dihydropyridine-3-carbonitrile] | 4 nM
N#Cc1c(-c2ccsc2)cc(=O)[nH]c1SCc1cccc(C(=O)O)c1 [Ex. 36, 3-((3-cyano-6-oxo-4-(thiophen-3-yl)-1,6-dihydropyridin-2-ylthio)methyl)benzoic acid] | 160 nM
N#Cc1c(SCC(=O)O)[nH]c(=O)c(Cl)c1C(F)(F)F [Ex. 38, 2-(5-chloro-3-cyano-6-oxo-4-(trifluoromethyl)-1,6-dihydropyridin-2-ylthio)acetic acid] | 11 nM
CC(C)c1cc(=O)[nH]c(SCC(=O)O)c1C#N [Ex. 13, 2-((3-cyano-4-isopropyl-6-oxo-1,6-dihydropyridin-2-yl)thio)acetic acid] | 2600 nM
N#Cc1c(C(F)(F)F)cc(=O)[nH]c1SCc1cc(F)cc(C(=O)O)c1 [Ex. 20, 3-(((3-cyano-6-oxo-4-(trifluoromethyl)-1,6-dihydropyridin-2-yl)thio)methyl)-5-fluorobenzoic acid] | 350 nM
N#Cc1c(C(F)(F)F)cc(=O)[nH]c1SCc1cccc(-c2nnn[nH]2)c1 [Ex. 42, 2-(3-(1H-tetrazol-5-yl)benzylthio)-6-oxo-4-(trifluoromethyl)-1,6-dihydropyridine-3-carbonitrile] | 32 nM
N#Cc1c(C(F)F)cc(=O)[nH]c1SCC(=O)O [Ex. 4, 2-((3-cyano-4-(difluoromethyl)-6-oxo-1,6-dihydropyridin-2-yl)thio)acetic acid] | 118 nM
Cc1cccc(-c2cc(=O)[nH]c(SCc3cccc(-c4nnn[nH]4)c3)c2C#N)c1 [Ex. 55, 2-((3-(1H-tetrazol-5-yl)benzyl)thio)-6-oxo-4-(m-tolyl)-1,6-dihydropyridine-3-carbonitrile] | 3 nM
N#Cc1c(C(F)(F)F)cc(=O)[nH]c1SCc1cc(C(=O)O)ccc1F [Ex. 19, 3-((3-cyano-6-oxo-4-(trifluoromethyl)-1,6-dihydropyridin-2-ylthio)methyl)-4-fluorobenzoic acid] | 230 nM
N#Cc1c(-c2ccncc2)cc(=O)[nH]c1SCc1cccc(C(=O)O)c1 [Ex. 26, 3-(((3-cyano-6-oxo-1,6-dihydro-[4,4′-bipyridin]-2-yl)thio)methyl)benzoic acid] | 29 nM
Cc1c(-c2ccccc2)c(C#N)c(SCc2cccc(C(=O)O)c2)[nH]c1=O [Ex. 31, 3-((3-cyano-5-methyl-6-oxo-4-phenyl-1,6-dihydropyridin-2-ylthio)methyl)benzoic acid] | > 10000 nM
N#Cc1c(-c2ccccn2)cc(=O)[nH]c1SCc1cccc(C(=O)O)c1 [Ex. 32, 3-(((3′-cyano-6′-oxo-1′,6′-dihydro-[2,4′-bipyridin]-2′-yl)thio)methyl)benzoic acid] | 170 nM
N#Cc1c(-c2ccsc2)cc(=O)[nH]c1SCc1cccc(-c2nnn[nH]2)c1 [Ex. 54, 2-(3-(1H-tetrazol-5-yl)benzylthio)-6-oxo-4-(thiophen-3-yl)-1,6-dihydropyridine-3-carbonitrile] | 9 nM
Cc1c(C(F)(F)F)c(C#N)c(SCC(=O)O)[nH]c1=O [Ex. 5, 2-((3-cyano-5-methyl-6-oxo-4-(trifluoromethyl)-1,6-dihydropyridin-2-yl)thio)acetic acid] | 26 nM
N#Cc1c(Cc2ccccc2)cc(=O)[nH]c1SCC(=O)O [Ex. 18, 2-((4-benzyl-3-cyano-6-oxo-1,6-dihydropyridin-2-yl)thio)acetic acid] | 36 nM
CC(Sc1[nH]c(=O)cc(C(F)(F)F)c1C#N)C(=O)O (centres unmarked) [Ex. 7, 2-(3-cyano-6-oxo-4-(trifluoromethyl)-1,6-dihydropyridin-2-ylthio)propanoic acid] | 271 nM

SMILES | IC50
N#Cc1c(SCc2cccc(C(=O)O)c2)[nH]c(=O)c(Cl)c1-c1ccccc1 [Ex. 41, 3-(((5-chloro-3-cyano-6-oxo-4-phenyl-1,6-dihydropyridin-2-yl)thio)methyl)benzoic acid] | 3 nM
N#Cc1c(SCc2nnn[nH]2)[nH]c(=O)c(F)c1C(F)(F)F [Ex. 48, 2-((1H-tetrazol-5-yl)methylthio)-5-fluoro-6-oxo-4-(trifluoromethyl)-1,6-dihydropyridine-3-carbonitrile] | 2 nM
N#Cc1c(SCC(=O)O)[nH]c(=O)c(F)c1C(F)(F)F [Ex. 17, 2-(3-cyano-5-fluoro-6-oxo-4-(trifluoromethyl)-1,6-dihydropyridin-2-ylthio)acetic acid] | 9 nM
N#Cc1c(SCC(=O)O)[nH]c(=O)c(C#N)c1C(F)(F)F [Ex. 39, 2-((3,5-dicyano-6-oxo-4-(trifluoromethyl)-1,6-dihydropyridin-2-yl)thio)acetic acid] | > 10000 nM
CC(C)(C)c1cc(=O)[nH]c(SCC(=O)O)c1C#N [Ex. 10, 2-((4-(tert-butyl)-3-cyano-6-oxo-1,6-dihydropyridin-2-yl)thio)acetic acid] | 4600 nM
N#Cc1c(C2CCCCC2)cc(=O)[nH]c1SCc1cccc(C(=O)O)c1 [Ex. 24, 3-(((3-cyano-4-cyclohexyl-6-oxo-1,6-dihydropyridin-2-yl)thio)methyl)benzoic acid] | 470 nM
COc1ccc(C(=O)O)cc1CSc1[nH]c(=O)cc(C(F)(F)F)c1C#N [Ex. 16, 3-(((3-cyano-6-oxo-4-(trifluoromethyl)-1,6-dihydropyridin-2-yl)thio)methyl)-4-methoxybenzoic acid] | 530 nM
N#Cc1c(Cc2ccccc2)cc(=O)[nH]c1SCc1nn[nH]n1 [Ex. 53, 2-(((2H-tetrazol-5-yl)methyl)thio)-4-benzyl-6-oxo-1,6-dihydropyridine-3-carbonitrile] | 2 nM
Cc1c(C(F)(F)F)c(C#N)c(SCc2nnn[nH]2)[nH]c1=O [Ex. 47, 2-(((1H-tetrazol-5-yl)methyl)thio)-5-methyl-6-oxo-4-(trifluoromethyl)-1,6-dihydropyridine-3-carbonitrile] | 7 nM
CCc1cc(=O)[nH]c(SCC(=O)O)c1C#N [Ex. 9, 2-((3-cyano-4-ethyl-6-oxo-1,6-dihydropyridin-2-yl)thio)acetic acid] | 3400 nM
Cc1cc(=O)[nH]c(SCc2cccc(C(=O)O)c2)c1C#N [Ex. 56, 3-(((3-cyano-4-methyl-6-oxo-1,6-dihydropyridin-2-yl)thio)methyl)benzoic acid] | 6750 nM
COCc1cc(=O)[nH]c(SCC(=O)O)c1C#N [Ex. 11, 2-(3-cyano-4-(methoxymethyl)-6-oxo-1,6-dihydropyridin-2-ylthio)acetic acid] | 9000 nM
N#Cc1c(C(F)(F)F)cc(=O)[nH]c1SCc1cccc(C(=O)O)c1 [Ex. 8, 3-((3-cyano-6-oxo-4-(trifluoromethyl)-1,6-dihydropyridin-2-ylthio)methyl)benzoic acid] | 1610 nM
N#Cc1c(SCc2cccc(C(=O)O)c2)[nH]c(=O)c(F)c1-c1ccccc1 [Ex. 30, 3-(((3-cyano-5-fluoro-6-oxo-4-phenyl-1,6-dihydropyridin-2-yl)thio)methyl)benzoic acid] | 70 nM
Cc1cc(=O)[nH]c(SCC(=O)O)c1C#N [reference compound] | 2990 nM
N#Cc1c(C2CC2)cc(=O)[nH]c1SCC(=O)O [Ex. 14, 2-((3-cyano-4-cyclopropyl-6-oxo-1,6-dihydropyridin-2-yl)thio)acetic acid] | 7300 nM
N#Cc1c(C(F)(F)F)cc(=O)[nH]c1SCc1cc(C(=O)O)ccc1Cl [Ex. 3, 4-chloro-3-((3-cyano-6-oxo-4-(trifluoromethyl)-1,6-dihydropyridin-2-ylthio)methyl)benzoic acid] | 158 nM
N#Cc1c(C(F)(F)F)cc(=O)[nH]c1SCCC(=O)O [Ex. 2, 3-(3-cyano-6-oxo-4-(trifluoromethyl)-1,6-dihydropyridin-2-ylthio)propanoic acid] | 752 nM
N#Cc1c(C(F)(F)F)cc(=O)[nH]c1SCc1cc(-c2nnn[nH]2)ccc1Cl [Ex. 45, 2-(2-chloro-5-(1H-tetrazol-5-yl)benzylthio)-6-oxo-4-(trifluoromethyl)-1,6-dihydropyridine-3-carbonitrile] | 4 nM
N#Cc1c(C(F)(F)F)cc(=O)[nH]c1SC(F)C(=O)O (centres unmarked) [Ex. 27, 2-(3-cyano-6-oxo-4-(trifluoromethyl)-1,6-dihydropyridin-2-ylthio)-2-fluoroacetic acid] | 9 nM
N#Cc1c(CC2CCCCC2)cc(=O)[nH]c1SCc1cccc(C(=O)O)c1 [Ex. 35, 3-(((3-cyano-4-(cyclohexylmethyl)-6-oxo-1,6-dihydropyridin-2-yl)thio)methyl)benzoic acid] | 200 nM
N#Cc1c(-c2ccccc2)cc(=O)[nH]c1SCc1cccc(C(=O)O)c1 [Ex. 15, 3-(((3-cyano-6-oxo-4-phenyl-1,6-dihydropyridin-2-yl)thio)methyl)benzoic acid] | 56 nM

Source: patent US11780812B2, “Oxopyridine derivatives useful as aminocarboxymuconate semialdehyde decarboxylase (ACMSD) inhibitors” (OrsoBio, Inc., priority 2016, dated 2023)
